As usually defined, the EC50 is the concentration needed to bring the measured effect to its halfway point.

Activity calls are given as the source filed them. No cut-off for these calls is given here. Peptide text beside a SMILES is read from it.

5 molecules from ChEMBL document CHEMBL3853332, “Pyrazolodiazepine derivatives with agonist activity toward Drosophila RYamide receptor” (Bioorg Med Chem Lett, 2016) can be followed below.

For assay [1], the target named is T1, RYamide receptor (Drosophila melanogaster) (UniProt P25931).
T1 sequence (whole entry): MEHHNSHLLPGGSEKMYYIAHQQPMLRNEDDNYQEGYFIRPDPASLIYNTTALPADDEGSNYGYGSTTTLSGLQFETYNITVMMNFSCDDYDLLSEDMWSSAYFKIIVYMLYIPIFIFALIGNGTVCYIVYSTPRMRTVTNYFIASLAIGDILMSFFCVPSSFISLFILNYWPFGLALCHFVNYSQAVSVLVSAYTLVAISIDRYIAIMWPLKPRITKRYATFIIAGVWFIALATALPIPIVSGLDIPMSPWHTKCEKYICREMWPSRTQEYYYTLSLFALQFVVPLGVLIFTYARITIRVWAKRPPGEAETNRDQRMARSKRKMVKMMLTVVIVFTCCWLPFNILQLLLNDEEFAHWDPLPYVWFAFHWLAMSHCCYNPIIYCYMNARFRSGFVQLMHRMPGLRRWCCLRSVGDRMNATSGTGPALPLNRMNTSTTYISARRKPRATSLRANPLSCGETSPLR
The assay is described as follows: Agonist activity at Drosophila melanogaster RYamide receptor expressed in wild type CHO-K1 cells assessed as increase in calcium level at 0.01 mM after 20 secs by luminescence assay. The format is cell-based.

Assay [2] addresses T1, RYamide receptor (Drosophila melanogaster). The assay is described as follows: Partial agonist activity at Drosophila melanogaster RYamide receptor expressed in wild type CHO-K1 cells assessed as increase in calcium level at 5 uM after 20 secs by luminescence assay relative to RYamide-1. The format is cell-based.
The target in another assay is T2, RYamide receptor (Drosophila melanogaster, UniProt P25931).
T2 sequence (P25931 whole entry): T1 sequence (whole entry)
The assay is described as follows: Agonist activity at Drosophila melanogaster RYamide receptor expressed in wild type CHO-K1 cells assessed as increase in calcium level after 20 secs by luminescence assay. The format is cell-based.

The target in assay [3] is T3, Neuropeptide F receptor (Drosophila melanogaster) (UniProt Q9VNM1).
T3 sequence (whole entry): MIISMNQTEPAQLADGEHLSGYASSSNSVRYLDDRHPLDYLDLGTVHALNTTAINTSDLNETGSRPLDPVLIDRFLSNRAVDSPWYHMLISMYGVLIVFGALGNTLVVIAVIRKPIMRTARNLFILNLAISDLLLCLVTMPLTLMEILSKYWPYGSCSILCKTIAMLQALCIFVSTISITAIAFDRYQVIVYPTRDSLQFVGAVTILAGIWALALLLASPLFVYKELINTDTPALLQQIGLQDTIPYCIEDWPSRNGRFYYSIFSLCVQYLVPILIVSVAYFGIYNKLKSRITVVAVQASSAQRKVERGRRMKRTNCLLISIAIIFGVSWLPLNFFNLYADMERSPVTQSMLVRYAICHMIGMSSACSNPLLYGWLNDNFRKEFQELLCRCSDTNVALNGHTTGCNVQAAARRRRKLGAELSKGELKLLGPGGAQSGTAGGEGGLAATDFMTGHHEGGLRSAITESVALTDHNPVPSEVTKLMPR
The assay is described as follows: Agonist activity at Drosophila melanogaster NPFR1 expressed in wild type CHO-K1 cells assessed as increase in calcium level at low nanomolar concentration after 20 secs by luminescence assay. Format: functional, cell-based.

As to `CC(C)CN1C[C@@H](CCCCN)N=C(SCCC(=O)NN)c2nn(CC(C)C)cc21`, the result in assay [1] was Active. The Activity in assay [2] is 40%. Further, the concentration giving a half-maximal response (EC50) on RYamide receptor came out at 20.9 µM.
The like results for `CC(C)CN1C[C@H](CCCCN)NC(=S)c2nn(CC(C)C)cc21` were, in that order, “Active”, 40% and 6.8 µM.
Turning to `Cc1noc(C)c1CN1CC(Cc2ccccc2)NC(=O)c2nn(CCC3CCN(C(=O)OC(C)(C)C)CC3)cc21` (stereo not drawn), the result in assay [1] was Active. For the same molecule, in assay [2], the Activity is 40%. Besides, the EC50 at RYamide receptor worked out at 5.9 µM.
For the molecule `CSCC[C@H](NC(=O)[C@@H](NC(=O)[C@H](CC(N)=O)NC(=O)[C@@H](NC(=O)[C@H](CC(=O)O)NC(=O)[C@H](CC(N)=O)NC(=O)[C@H](CCCCN)NC(=O)[C@H](CCCNC(=N)N)NC(=O)[C@@H]1CCCN1C(=O)[C@@H]1CCCN1C(=O)[C@H](CCCNC(=N)N)NC(=O)[C@H](CO)NC(=O)[C@H](CC(N)=O)NC(=O)[C@@H](N)CO)C(C)C)[C@@H](C)O)C(=O)N[C@@H](C)C(=O)N[C@@H](CC(=O)O)C(=O)N[C@@H](C)C(=O)N[C@@H](Cc1ccc(O)cc1)C(=O)N[C@@H](CCCCN)C(=O)N[C@@H](Cc1ccccc1)C(=O)N[C@@H](CC(C)C)C(=O)N[C@@H](CCC(N)=O)C(=O)N[C@@H](CC(=O)O)C(=O)N[C@@H](CC(C)C)C(=O)N[C@@H](CC(=O)O)C(=O)N[C@H](C(=O)N[C@@H](Cc1ccc(O)cc1)C(=O)N[C@@H](Cc1ccc(O)cc1)C(=O)NCC(=O)N[C@@H](CC(=O)O)C(=O)N[C@@H](CCCNC(=N)N)C(=O)N[C@@H](C)C(=O)N[C@@H](CCCNC(=N)N)C(=O)N[C@H](C(=O)N[C@@H](CCCNC(=N)N)C(=O)N[C@@H](Cc1ccccc1)C(=O)O)C(C)C)[C@@H](C)O` (H-SNSRPPRKNDVNTMADAYKFLQDLDTYYGDRARVRF-OH), in assay [3], the outcome was Active.
As to `CC(C)CN1C[C@H](CCCCN)N=C(SCCC(N)=O)c2nn(CC(C)C)cc21`, the outcome in assay [1] was Active. The Activity in assay [2] came to 40%. At RYamide receptor, the half-maximal effective concentration (EC50) is 6.1 µM.
